# Tested on: Prostate cancer cells 22RV1
# Assay: Experiment on inhibiting 22RV1 cell proliferation (CellTiter-Glo, 7 days)
# Type: cell-based
# Conditions: Homo sapiens, 168 h, 22RV1 cells, 7 days incubation, cells with nM printed beside the value, read-out: IC50 values for inhibition of 22RVI cells
# Description: Prostate cancer cells 22RV1 were purchased from ATCC, the cell medium was RPMI 1640+10% FBS, and the cells were cultured in an incubator at 37° C. under 5% CO2. On day 1, the cells in the exponential growth phase were collected. With a 1% css-FBS phenol red-free medium, the cell suspension was adjusted to a corresponding concentration, plated at 2000 cells/well and incubated overnight. On day 2, compounds at different concentrations were added, and the plate was placed in the incubator and incubated for further 7 days. After the incubation was completed, according to operation instructions for a CellTiter-Glo kit (Promega, G7573), 50 μL of CellTiter-Glo reagents, which were already pre-melted and equilibrated to room temperature, were added to each well, and the mixtures were uniformly mixed for 2 min using a microplate shaker. The plate was placed at room temperature for 10 min. and then […] signal values were measured using a microplate reader (PHERAstar FSX). The results were processed according to formula (I), the inhibition rate of the compound at different concentrations was calculated, and the IC50 value of the compound with an inhibition rate of 50% was calculated using origin9.2 software with DoseResp function, wherein RLUcompound was the readout of the treated group, and RLUcontrol was the average value of the DMSO vehicle control group.
row,IC50,SMILES
1,< 50 nM,Cc1cc(C(F)(F)F)ccc1NC(=O)C(C)(C)n1cc(C#CC2CN(c3ccc4c(c3)C(=O)N(C3CCC(=O)NC3=O)C4=O)C2)cn1 (stereo not shown) [Compound 59]
2,< 50 nM,"O=C1CCC(N2C(=O)c3ccc(N4CC(C#Cc5cnn(C6(C(=O)Nc7ccc(C(F)(F)F)c(C8CC8)c7)CCC6)c5)C4)cc3C2=O)C(=O)N1 (stereo not shown) [Compound 75, N-(3-cyclopropyl-4-(trifluoromethyl)phenyl)-1-(4-((1-(2-(2,6-dioxopiperidin-3-yl)-1,3-dioxoisoindolin-5-yl)azetidin-3-yl)ethynyl)-1H-pyrazol-1-yl)cyclobutane-1-carboxamide]"
3,< 50 nM,"CC(C)(C(=O)Nc1ccc(C#N)cc1Br)n1cc(C#CC2CN(c3ccc4c(c3)C(=O)N(C3CCC(=O)NC3=O)C4=O)C2)cn1 (stereo not shown) [Compound 82, N-(2-bromo-4-cyanophenyl)-2-(4-((1-(2-(2,6-dioxopiperidin-3-yl)-1,3-dioxoisoindolin-5-yl)azetidin-3-yl)ethynyl)-1H-pyrazol-1-yl)-2-methylpropanamide]"
4,< 50 nM,"CC(C)(C(=O)Nc1ccc(C(F)(F)F)cc1C#CC1CC1)n1cc(C#CC2CN(c3ccc4c(c3)C(=O)N(C3CCC(=O)NC3=O)C4=O)C2)cn1 (stereo not shown) [Compound 116, N-(2-(cyclopropylethynyl)-4-(trifluoromethyl)phenyl)-2-(4-((1-(2-(2,6-dioxopiperidin-3-yl)-1,3-dioxoisoindolin-5-yl)azetidin-3-yl)ethynyl)-1H-pyrazol-1-yl)-2-methylpropanamide]"
5,< 50 nM,"Cc1c(C#CC2CN(c3ccc4c(c3)C(=O)N(C3CCC(=O)NC3=O)C4=O)C2)cnn1C1(C(=O)Nc2ccc(C(F)(F)F)cc2Cl)CCC1 (stereo not shown) [Compound 163, N-(2-chloro-4-(trifluoromethyl)phenyl)-1-(4-((1-(2-(2,6-dioxopiperidin-3-yl)-1,3-dioxoisoindolin-5-yl)azetidin-3-yl)ethynyl)-5-methyl-1H-pyrazol-1-yl)cyclobutane-1-carboxamide]"

# Second part, the molecule before the results:
row,SMILES,IC50
1,"CC(C)(C(=O)Nc1ccc(C#N)c2ccccc12)n1cc(C#CC2(F)CN(c3ccc4c(c3)C(=O)N(C3CCC(=O)NC3=O)C4=O)C2)cn1 (stereo not shown) [Compound 68, N-(4-cyanonaphthalen-1-yl)-2-(4-(2-(1-(2-(2,6-dioxopiperidin-3-yl)-1,3-dioxo-2,3-dihydro-1H-isoindol-5-yl)-3-fluoroazetidin-3-yl)ethynyl)-1H-pyrazol-1-yl)-2-methylpropanamide]",< 50 nM
2,"O=C1CCC(N2C(=O)c3ccc(N4CC(C#Cc5cnn(C6(C(=O)Nc7ccc(C(F)(F)F)cc7Cl)CCCC6)c5)C4)cc3C2=O)C(=O)N1 (stereo not shown) [Compound 69, N-(2-chloro-4-(trifluoromethyl)phenyl)-1-(4-((1-(2-(2,6-dioxopiperidin-3-yl)-1,3-dioxoisoindolin-S-yl)azetidin-3-yl)ethynyl)-1H-pyrazol-1-yl)cyclopentane-1-carboxamide]",< 50 nM
3,O=C1CCC(N2C(=O)c3ccc(N4CC(F)(C#Cc5cnn(C6(C(=O)Nc7ccc(C(F)(F)F)cc7Cl)CCC6)c5)C4)cc3C2=O)C(=O)N1 (stereo not shown) [Compound 71],< 50 nM
4,"O=C1CCC(N2C(=O)c3ccc(N4CC(C#Cc5cnn(C6(C(=O)Nc7ccc(C(F)(F)F)cc7Cl)CC6)c5)C4)cc3C2=O)C(=O)N1 (stereo not shown) [Compound 72, N-(2-chloro-4-(trifluoromethyl)phenyl)-1-(4-((1-(2-(2,6-dioxopiperidin-3-yl)-1,3-dioxoisoindolin-5-yl)azetidin-3-yl)ethynyl)-1H-pyrazol-1-yl)cyclopropane-1-carboxamide]",< 50 nM
5,"CC(C(=O)Nc1ccc(C#N)c(C(F)(F)F)c1)n1cc(C#CC2CN(c3ccc4c(c3)C(=O)N(C3CCC(=O)NC3=O)C4=O)C2)cn1 (stereo not shown) [Compound 77, N-(4-cyano-3-(trifluoromethyl)phenyl)-2-(4-((1-(2-(2,6-dioxopiperidin-3-yl)-1,3-dioxoisoindolin-5-yl)azetidin-3-yl)ethynyl)-1H-pyrazol-1-yl) propanamide]",< 50 nM
6,"[2H]C1([2H])C([2H])([2H])C(C(=O)Nc2ccc(C(F)(F)F)cc2Cl)(n2cc(C#CC3CN(c4ccc5c(c4)C(=O)N(C4CCC(=O)NC4=O)C5=O)C3)cn2)C1([2H])[2H] (stereo not shown) [Compound 113, N-(2-chloro-4-(trifluoromethyl)phenyl)-1-(4-((1-(2-(2,6-dioxopiperidin-3-yl)-1,3-dioxoisoindolin-5-yl)azetidin-3-yl)ethynyl)-1H-pyrazol-1-yl)cyclobutane-2,2,3,3,4,4-d6-1-carboxamide]",< 50 nM
7,"Cc1c(C#N)ccc(NC(=O)C(C)(C)n2cc(C#CC3CN(c4ccc5c(c4)C(=O)N(C4CCC(=O)NC4=O)C5=O)C3)cn2)c1C (stereo not shown) [Compound 152, N-(4-cyano-2,3-dimethylphenyl)-2-(4-((1-(2-(2,6-dioxopiperidin-3-yl)-1,3-dioxoisoindolin-5-yl)azetidin-3-yl)ethynyl)-1H-pyrazol-1-yl)-2-methylpropanamide]",< 50 nM
8,"CC(C)(C(=O)Nc1ccc(C#N)c2c1C1CCC2C1)n1cc(C#CC2CN(c3ccc4c(c3)C(=O)N(C3CCC(=O)NC3=O)C4=O)C2)cn1 (stereo not shown) [Compound 165, N-(8-cyano-1,2,3,4-tetrahydro-1,4-methanonaphthalen-5-yl)-2-(4-((1-(2-(2,6-dioxopiperidin-3-yl)-1,3-dioxoisoindolin-5-yl)azetidin-3-yl)ethynyl)-1H-pyrazol-1-yl)-2-methylpropanamide]",< 100 nM

# Same assay, conditions: Homo sapiens, 168 h, 22RV1 cells, 7 days incubation, cells without a unit of their own (μM), read-out: IC50 values for inhibition of 22RVI cells
row,IC50,SMILES
1,< 1000 nM,"CC(C)(C(=O)Nc1ccc(C(F)(F)F)cc1-n1cncn1)n1cc(C#CC2CN(c3ccc4c(c3)C(=O)N(C3CCC(=O)NC3=O)C4=O)C2)cn1 (stereo not shown) [Compound 117, N-(2-(1H-1,2,4-triazol-1-yl)-4-(trifluoromethyl)phenyl)-2-(4-((1-(2-(2,6-dioxopiperidin-3-yl)-1,3-dioxoisoindolin-5-yl)azetidin-3-yl)ethynyl)-1H-pyrazol-1-yl)-2-methylpropanamide]"
2,< 1000 nM,"CC(C)(C(=O)Nc1ccc(C(F)(F)F)cc1Cl)n1cnc2ccc(C#CC3CN(c4ccc5c(c4)C(=O)N(C4CCC(=O)NC4=O)C5=O)C3)cc21 (stereo not shown) [Compound 161, N-(2-chloro-4-(trifluoromethyl)phenyl)-2-(6-((1-(2-(2,6-dioxopiperidin-3-yl)-1,3-dioxoisoindolin-5-yl)azetidin-3-yl)ethynyl)-1H-benzo[d]imidazol-1-yl)-2-methylpropanamide]"

# Further lines, the molecule ahead of its results:
row,SMILES,IC50
1,"CNC(=O)c1cc(C(F)(F)F)ccc1NC(=O)C(C)(C)n1cc(C#CC2CN(c3ccc4c(c3)C(=O)N(C3CCC(=O)NC3=O)C4=O)C2)cn1 (stereo not shown) [Compound 52, 2-(2-(4-((1-(2-(2,6-dioxopiperidin-3-yl)-1,3-dioxoisoindolin-5-yl)azetidin-3-yl)ethynyl)-1H-pyrazol-1-yl)-2-methylpropanamido)-N-methyl-5-(trifluoromethyl)benzamide]",< 1000 nM
2,N#Cc1ccc(NC(=O)C2(n3cc(C#CC4CN(c5cc6c(cc5F)C(=O)N(C5CCC(=O)NC5=O)C6=O)C4)cn3)CCC2)c2ccccc12 (stereo not shown) [Compound 80],< 1000 nM
3,CC(C)(C(=O)Nc1ccc(C#N)c2ccccc12)n1cc(C#CC2CN(c3cc4c(cc3F)C(=O)N(C3CCC(=O)NC3=O)C4=O)C2)cn1 (stereo not shown) [Compound 81],< 1000 nM
4,"O=C1CCC(N2C(=O)c3ccc(N4CCC5(CC4)CC(CN4CCC(c6cnn(C7(C(=O)Nc8ccc(C(F)(F)F)cc8Cl)CCC7)c6)CC4)C5)cc3C2=O)C(=O)N1 (stereo not shown) [Compound 85, N-(2-chloro-4-(trifluoromethyl)phenyl)-1 (4-(1-((7-(2-(2,6-dioxopiperidin-3-yl)-1,3-dioxoisoindolin-5-yl)-7-azaspiro[3.5]nonan-2-yl)methyl)piperidin-4-yl)-1H-pyrazol-1-yl)cyclobutane-1-carboxamide]",< 1000 nM
5,"O=C1CCC(N2C(=O)c3ccc(N4CC5CC(CN6CCC(c7cnn(C8(C(=O)Nc9ccc(C(F)(F)F)cc9Cl)CCC8)c7)CC6)CC5C4)cc3C2=O)C(=O)N1 (stereo not shown) [Compound 91, N-(2-chloro-4-(trifluoromethyl)phenyl)-1-(4-(1-((2-(2-(2,6-dioxopiperidin-3-yl)-1,3-dioxoisoindolin-5-yl)octahydrocyclopenta[c]pyrrol-5-yl)methyl)piperidin-4-yl)-1H-pyrazol-1-yl)cyclobutane-1-carboxamide]",< 1000 nM
6,"CC(C)(C(=O)Nc1ccc(C(F)(F)F)cc1-c1ccccc1)n1cc(C#CC2CN(c3ccc4c(c3)C(=O)N(C3CCC(=O)NC3=O)C4=O)C2)cn1 (stereo not shown) [Compound 112, 2-(4-((1-(2-(2,6-dioxopiperidin-3-yl)-1,3-dioxoisoindolin-5-yl)azetidin-3-yl)ethynyl)-1H-pyrazol-1-yl)-2-methyl-N-(5-(trifluoromethyl)-[1,1′-biphenyl]-2-yl) propanamide]",< 1000 nM
7,"CC(C)(C(=O)Nc1ccc(C(F)(F)F)cc1Cl)n1cnc2cc(C#CC3CN(c4ccc5c(c4)C(=O)N(C4CCC(=O)NC4=O)C5=O)C3)ccc21 (stereo not shown) [Compound 162, N-(2-chloro-4-(trifluoromethyl)phenyl)-2-(5-((1-(2-(2,6-dioxopiperidin-3-yl)-1,3-dioxoisoindolin-5-yl)azetidin-3-yl)ethynyl)-1H-benzo[d]imidazol-1-yl)-2-methylpropanamide]",< 1000 nM

# Source: patent US20250171417A1, “HETEROCYCLIC DERIVATIVE, AND COMPOSITION AND PHARMACEUTICAL USE THEREOF” (Xizang Haisco Pharmaceutical Co., Ltd., priority 2021, published 2025)
